Reference: the NIST ThermoML archive (doi:10.1016/j.fluid.2018.04.020)
Numbers after ± are expanded uncertainties.

Settings: 101.33 kPa, Liquid, Vibrating tube method

Row | mass density (293.15 K) | mass density (303.15 K) | mass density (313.15 K) | mass density (323.15 K) | Structure (SMILES)
1 | 1008.9 ± 2.2 kg/m3 | 1003 ± 2.1 kg/m3 | 997.3 ± 2.1 kg/m3 | 991.4 ± 2.1 kg/m3 | CCCC[N+]1(C)CCCC1.N#CC(=C=[N-])C#N [1-butyl-1-methylpyrrolidinium tricyanomethanide]
2 | 1038.3 ± 2.2 kg/m3 | 1032.1 ± 2.2 kg/m3 | 1025.7 ± 2.2 kg/m3 | 1019.7 ± 2.2 kg/m3 | CCCC[n+]1ccc(C)cc1.N#CC(=C=[N-])C#N [1-butyl-4-methylpyridinium tricyanomethanide]
